Test results reported in PMC8095338 (Neuro-oncology Advances, 2021).
Several values for one entry are separate records, joined by “and”; a condition that tells them apart may be missing. Equal values may be shown once. Read-outs that look alike come from different tables or passages of the source.

How the values were obtained:
[1] = cited from earlier work; for maximum tolerated dose: twice daily
[2] = tested on: DUSP6 and FOS; test: Transcript biomarkers of MEK inhibition in tissues (RT-PCR); format: in vivo, minipig; settings: skin, sciatic nerve, optic nerve and cerebral cortex of all treated minipigs, 2 h after single oral 7.3 mg/kg
Protocol: WT (n = 8) and NF1 (n = 8) minipigs received a single human equivalent oral dose of 450 mg (7.3 mg/kg). Untreated WT (n = 4) and NF1 (n = 4) minipigs were also enrolled as controls. All animals were euthanized 2 h after drug administration. Tissue samples were collected from each animal at the same approximate locations and divided for analysis.
For RNA profiling, tissues were homogenized using ceramic homogenizers (Agilent 5982–9311) and a Beadblaster 24 (Benchmark D2400) for 3 cycles of 30 s each. RNA was extracted from all tissues using the RNeasy Mini kit (QIAGEN 74104) and RNA concentration and quality was measured by NanoDrop (Thermo). Analysis of transcript biomarkers of MEK inhibition was performed using the Fluidigm platform by Reverse Transcription, preamplification with pooled primers and Real Time-PCR on the Juno and BioMark using the following pig TaqMan primers (DUSP6-Ss06941845_m1; FOS -Ss03390402_m1; normalized to the average of pig housekeeping genes (B2M/Ss03391154_m1; HPRT1/Ss03388274_m1; PPIA/Ss03394782_g1; RPL13A/Ss03376908_u1; UBC/Ss03374343_g1, TFRC/Ss03391240_m1). Data were then normalized to the average of the control untreated group from matching WT or NF1 background (Log2 fold change, -ddCt).

[3] = Dose-finding study, plasma PK in wild-type minipigs; format: in vivo, minipig; settings: for Cmax: female, WT minipig, plasma (data not shown)
Protocol: This was conducted to determine the dose required to reach the human equivalent therapeutic exposure. Human equivalent doses of 50, 75, 300, and 600 mg were tested. Each dose was administered orally to a 5-month-old wild-type female minipig. Blood was collected immediately prior to drug administration (T = 0) and 1, 2, 6, and 24 h after drug administration.

[4] = Plasma PK study in WT and NF1 minipigs (LC-MS/MS, noncompartmental); format: in vivo, minipig; settings: for AUC: read-out: AUC0?∞
Protocol: Plasma isolation was performed as described in a previous study.[13] […] Tissues were harvested and immediately transferred to cryovials and stored at −80°C until analysis.
Standard curves and controls were generated using corresponding untreated tissue. Skin tissue was treated with collagenase, and all organ tissues were homogenized. Liquid extraction with ethyl acetate was then performed, followed by analysis. […] The chromatographic separation was performed as described.[13] Mass spectrometric detection was performed using multiple reaction monitoring in positive ionization mode. […] Ion source gases 1 and 2 were set at 50 and 50 psi, respectively; the curtain gas was at 20 psi and the collision gas at 4 psi. […] Data acquisition was performed with analyst 1.4.1 software (MDS-SCIEX).
The PK parameters included AUC–time curve from time 0 to ∞ (linear up, log down), Cmax, Tmax, and T1/2.

[5] = tested on: ERK phosphorylation (p-ERK) in PBMCs; test: Blood PD: p-ERK in ex vivo PMA-stimulated PBMCs (capillary western); set-up: species or system minipig; settings: Sus scrofa, PBMC, all minipigs (WT and NF1), 2 to 5 h after single oral 7.3 mg/kg
Protocol: WT (n = 8) and NF1 (n = 8) minipigs received a single human equivalent oral dose of 450 mg (7.3 mg/kg).
PD analysis in blood was performed as described in a previous study, with some modifications.[13] […] Samples were stimulated with phorbol 12-myristate 13-acetate (PMA) (200 nM) or phosphate-buffered saline for 10 min at 37°C within 1 h of being drawn. Red blood cells were removed using standard ammonium-chloride-potassium (ACK) lysis. Peripheral blood mononuclear cells (PBMCs) were snap-frozen as dry pellets and stored at −80°C until analysis. Protein lysates from PBMCs were prepared as described in a previous study.[13] For tissues, protein lysates were prepared by transferring ~[…] of snap frozen tissue to a 1.7-mL microfuge tube containing radioimmunoprecipitation lysis buffer with protease and phosphatase inhibitors. The samples were then homogenized using a rotor-stator homogenizer for 2–4 cycles of 20 s and centrifuged for 10 min at 4°C. Concentrations were measured using the Pierce BCA Protein assay kit (Thermo #23227), according to the manufacturer’s instructions. […] Peaks of the appropriate molecular weight (42/44 kilodaltons) were detected in the resulting electropherograms and chemiluminescent signal was quantified by calculating the area under the peaks. The relative intensity of p-ERK to total ERK was then calculated as a ratio (p-ERK/ERK). […]

[6] = female, minipig, po, 7.3 mg/kg, individual NF1 F minipigs, single oral 7.3 mg/kg
[7] = female, minipig, po, 7.3 mg/kg, individual WT F minipigs, single oral 7.3 mg/kg
[8] = individual NF1 F minipigs, single oral 7.3 mg/kg, 7.3 mg/kg
[9] = individual NF1 M minipigs, single oral 7.3 mg/kg, 7.3 mg/kg
[10] = individual WT F minipigs, single oral 7.3 mg/kg, 7.3 mg/kg
[11] = individual WT M minipigs, single oral 7.3 mg/kg, 7.3 mg/kg
[12] = minipig, po, 7.3 mg/kg, all 16 minipigs (WT and NF1), median (range), single oral 7.3 mg/kg
[13] = minipig, po, 7.4 mg/kg, NF1 minipigs, 7.4 mg/kg single oral dose, median (range)
[14] = minipig, po, 7.4 mg/kg, WT minipigs, 7.4 mg/kg single oral dose, median (range)

**Q.** With `Cn1cnc2c(F)c(Nc3ccc(Br)cc3Cl)c(C(=O)NOCCO)cc21` [selumetinib] as the compound, how does the maximum tolerated dose ([1]; adult patients with advanced solid malignancy) read?
**A.** Its maximum tolerated dose is 75 mg.

**Q.** What about the maximum tolerated dose ([1]; pediatric patients with plexiform neurofibroma or low-grade glioma) of the same compound?
**A.** The maximum tolerated dose was 25 mg/m^2.

**Q.** And the confirmed partial response ([1]; pediatric patients, 25 mg/m^2 twice daily)?
**A.** Its confirmed partial response is 70 % of pediatric patients.

**Q.** What about the DUSP6 transcript expression [2] of the same compound?
**A.** Its DUSP6 transcript expression is “downregulated”.

**Q.** And the FOS transcript expression [2]?
**A.** The FOS transcript expression was “downregulated”.

**Q.** And the “dose proportionality of selumetinib exposure” value ([3]; WT minipigs, from 75 to 300 mg human equivalent dose)?
**A.** Its value is “dose proportional”.

**Q.** And the Cmax ([3]; single oral 300 mg human equivalent dose)?
**A.** The Cmax was 1000 ng/mL.

**Q.** What about the Cmax ([3]; single oral 600 mg human equivalent dose) of the same compound?
**A.** The Cmax was 670 ng/mL.

**Q.** What about the Clast ([4]; all 16 minipigs (WT and NF1), median (range), single oral 7.3 mg/kg) of the same compound?
**A.** The Clast was 22.7 ng/mL.

**Q.** What about the k el ([4]; female, minipig, individual WT F minipigs, single oral 7.3 mg/kg) of the same compound?
**A.** The k el was 2.78e-05 s⁻¹.

**Q.** What about the half-life [4, 6] of the same compound?
**A.** Its half-life is 7.5 h.

**Q.** What about the AUC [4, 6] of the same compound?
**A.** The AUC was 3560 ng·h/mL.

**Q.** And the Cmax ([4]; female, minipig, po, 7.3 mg/kg, individual NF1 F minipigs, single oral 7.3 mg/kg, read-out: Cmax)?
**A.** The Cmax was 812 ng/mL.

**Q.** What about the half-life [4, 7] of the same compound?
**A.** The half-life was 7.1 h.

**Q.** What about the AUC [4, 7] of the same compound?
**A.** The AUC was 3680 ng·h/mL.

**Q.** What about the Cmax ([4]; female, minipig, po, 7.3 mg/kg, individual WT F minipigs, single oral 7.3 mg/kg, read-out: Cmax) of the same compound?
**A.** Its Cmax is 636 ng/mL.

**Q.** What about the Kel ([4]; individual NF1 F minipigs, single oral 7.3 mg/kg) of the same compound?
**A.** Its Kel is 0.1 h⁻¹.

**Q.** And the “AUC0?∞” value [4, 8]?
**A.** Its value is 5896 ng·h/mL and 5255 ng·h/mL and 4287 ng·h/mL.

**Q.** And the Cmax [4, 8]?
**A.** The Cmax was 678 ng/mL and 633 ng/mL and 571 ng/mL.

**Q.** What about the T1/2 [4, 8] of the same compound?
**A.** Its T1/2 is 7.6 h and 8.0 h and 8.2 h.

**Q.** And the Tmax [4, 8]?
**A.** The Tmax was 2.0 h and 0.5 h.

**Q.** What about the “AUC0?∞” value [4, 9] of the same compound?
**A.** Its value is 4116 ng·h/mL and 6092 ng·h/mL and 4344 ng·h/mL.

**Q.** What about the Cmax [4, 9] of the same compound?
**A.** Its Cmax is 1480 ng/mL and 294 ng/mL and 766 ng/mL and 547 ng/mL.

**Q.** And the T1/2 [4, 9]?
**A.** The T1/2 was 7.3 h and 14.7 h and 10.6 h and 6.1 h.

**Q.** What about the Tmax [4, 9] of the same compound?
**A.** Its Tmax is 2.0 h.

**Q.** What about the “AUC0?∞” value [4, 10] of the same compound?
**A.** Its value is 5722 ng·h/mL and 5468 ng·h/mL and 5843 ng·h/mL.

**Q.** What about the Cmax [4, 10] of the same compound?
**A.** Its Cmax is 573 ng/mL and 1040 ng/mL and 1020 ng/mL.

**Q.** And the T1/2 [4, 10]?
**A.** Its T1/2 is 10.1 h and 6.7 h and 7.8 h.

**Q.** And the Tmax [4, 10]?
**A.** Its Tmax is 2.0 h and 0.5 h.

**Q.** What about the Kel ([4]; individual WT M minipigs, single oral 7.3 mg/kg) of the same compound?
**A.** Its Kel is 0.1 h⁻¹.

**Q.** And the “AUC0?∞” value [4, 11]?
**A.** The value was 3558 ng·h/mL and 9926 ng·h/mL and 5995 ng·h/mL and 5040 ng·h/mL.

**Q.** What about the Cmax [4, 11] of the same compound?
**A.** The Cmax was 266 ng/mL and 621 ng/mL and 861 ng/mL and 1270 ng/mL.

**Q.** And the T1/2 [4, 11]?
**A.** The T1/2 was 6.7 h and 10.6 h and 11.8 h.

**Q.** What about the Tmax [4, 11] of the same compound?
**A.** Its Tmax is 5 h and 0.5 h and 2.1 h.

**Q.** And the k el ([4]; male, minipig, individual NF1 M minipigs, single oral 7.3 mg/kg)?
**A.** The k el was 2.78e-05 s⁻¹.

**Q.** And the AUC ([4]; male, minipig, po, 7.3 mg/kg, individual NF1 M minipigs, single oral 7.3 mg/kg)?
**A.** The AUC was 7930 ng·h/mL.

**Q.** What about the Tmax ([4]; male, minipig, po, 7.3 mg/kg, individual NF1 M minipigs, single oral 7.3 mg/kg, read-out: Tmax) of the same compound?
**A.** Its Tmax is 1.1 h.

**Q.** And the half-life ([4]; male, minipig, po, 7.3 mg/kg, individual WT M minipigs, single oral 7.3 mg/kg)?
**A.** The half-life was 12.3 h.

**Q.** And the k el ([4]; minipig, all 16 minipigs (WT and NF1), median (range), single oral 7.3 mg/kg)?
**A.** Its k el is 2.78e-05 s⁻¹.

**Q.** And the AUC(0-inf) [4, 12]?
**A.** Its AUC(0-inf) is 5360 ng·h/mL.

**Q.** What about the half-life [4, 12] of the same compound?
**A.** The half-life was 7.9 h.

**Q.** And the Cmax ([4]; minipig, po, 7.3 mg/kg, all 16 minipigs (WT and NF1), median (range), single oral 7.3 mg/kg, read-out: Cmax)?
**A.** The Cmax was 657 ng/mL.

**Q.** What about the Tmax ([4]; minipig, po, 7.3 mg/kg, all 16 minipigs (WT and NF1), median (range), single oral 7.3 mg/kg, read-out: Tmax) of the same compound?
**A.** Its Tmax is ~1 h.

**Q.** And the AUC(0-inf) [4, 13]?
**A.** Its AUC(0-inf) is 4800 ng·h/mL.

**Q.** And the half-life [4, 13]?
**A.** The half-life was 7.8 h.

**Q.** What about the Cmax ([4]; minipig, po, 7.4 mg/kg, NF1 minipigs, 7.4 mg/kg single oral dose, median (range), read-out: Cmax) of the same compound?
**A.** The Cmax was 656 ng/mL.

**Q.** What about the Tmax ([4]; minipig, po, 7.4 mg/kg, NF1 minipigs, 7.4 mg/kg single oral dose, median (range), read-out: Tmax) of the same compound?
**A.** The Tmax was 1.1 h.

**Q.** What about the AUC(0-inf) [4, 14] of the same compound?
**A.** The AUC(0-inf) was 5600 ng·h/mL.

**Q.** What about the half-life [4, 14] of the same compound?
**A.** The half-life was 9 h.

**Q.** What about the Cmax ([4]; minipig, po, 7.4 mg/kg, WT minipigs, 7.4 mg/kg single oral dose, median (range), read-out: Cmax) of the same compound?
**A.** The Cmax was 749 ng/mL.

**Q.** What about the inhibition at 7.3 mg/kg ([5]; read-out: maximal inhibition of p-ERK in PBMCs) of the same compound?
**A.** The inhibition at 7.3 mg/kg was ≤ 90%.

**Q.** What about the inhibition at 7.3 mg/kg ([5]; read-out: mean inhibition of p-ERK in PBMCs) of the same compound?
**A.** The inhibition at 7.3 mg/kg was 60%.
